Reference: US20120295838A1, “Selective poly-substituted glycine antibiotics and related compositions” (priority 2008, published 2012)
≈ marks a conversion by molar mass, not a printed value. Like-named read-outs stand apart in the source and are kept apart here. Numbered stars: 1 amine (or outer) side, 2 acyl side, 3 side chain; on linkers, the order of the positions; unused ones are H or OH. Square brackets hold non-standard residues; d marks the D form. Ends that are not written are not given here. Peptide text beside a SMILES is read from it. Gly(N-CH2CH2-imidazol-4-yl) = O=C(O)CNCCc1c[nH]cn1; X1 = CC(C)[C@H](C)N(CC(=O)[*:2])[*:1]; Nspe = C[C@H](NCC(=O)O)c1ccccc1; Nphe = O=C(O)CNCc1ccccc1; Nlys = NCCCCNCC(=O)O

Columns and labels:
[1] = RP-HPLC solvent composition at elution as measure of molecular hydrophobicity; assay type: physicochemical; conditions: for HPLC elution solvent: Table 1, percent acetonitrile in water, 0.1% (v/v) TFA at HPLC elution; for % ACN at RP-HPLC elution: Table 8, gradient 5 to 95% ACN over 45 min, 0.2 ml/min, average of three replicates
Text: An initial set of 15 ampetoid analogs was synthesized to determine whether peptoids are affected by structural and sequence modifications in a manner consistent with AMP activities. The designs for ampetoids in this library were derived from two antibacterial and selective amphipathic dodecamers, 1 and 2. Peptoid 1 [H-(Nlys-Nspe-Nspe)4-NH2] is composed of 2/3 Nspe, the peptoid analog of phenylalanine, and 1/3 Mys, the peptoid analog of lysine (see FIG. 1 for the structures of representative peptoid monomers and corresponding N-substituents). Peptoid 2 [H-(Mys-Nssb-Nspe)4-NH2] contains 1/3 isoleucine-like Nssb monomers in place of Nspe. The variant sequences were designed to effect changes in chirality, length, hydrophobicity, charge, and amphipathicity. All of these compounds were tested for antibacterial activity against representative BSL1 Gram-negative (E. coli JM109) and Gram-positive (B. subtilis BR151) bacterial strains. As an initial measure of selectivity, the lytic activity of the peptoids was determined against human erythrocytes. Table 1 summarizes the sequences synthesized, the solvent composition at RP-HPLC elution as a relative measure of molecular hydrophobicity, and antibacterial and hemolytic activities.
Following synthesis, peptoid oligomers can be cleaved from the resin, simultaneously removing the tert-butoxycarbonyl (Boc) protecting group from Mys residues, by treatment with 10 ml 2,2,2-trifluoroacetic acid (TFA)/triisopropylsilane/H2O (95:2.5:2.5 by volume) for 30 min. The cleavage mixture is then diluted with 25 ml 50% aqueous acetonitrile, frozen, and lyophilized. Dilution and lyophilization is repeated twice more in order to remove excess TFA. Subsequent to cleavage, peptoids are each purified to >97% homogeneity by preparative scale reversed-phase HPLC using a Waters Prep LC 4000 system, with Waters 2487 dual-wavelength UV detection, and gradient elution (solvent A, 0.1 vol % trifluoroacetic acid (TFA) in water; solvent B, 0.1 vol % TFA in acetonitrile) through a Vydac (Hysperia, Calif.) 214TP101550 C4 peptide/protein column (10-15 μm, 300 Å, 5×25 cm). Following prep HPLC, peptoid purities and crude yields were determined from analytical scale HPLC, performed with a Waters 2695 Separations Module with a Waters 2487 dual-wavelength UV detector and gradient elution (solvent A, 0.1 vol % TFA in water; solvent B, 0.1 vol % TFA in acetonitrile) through a Vydac C4 214TP53 peptide/protein column (5 μm, 300 Å, 3.2×250 mm). The precise gradient employed for HPLC depended on the identity and hydrophobicity of the oligomer in question. All analytical HPLC was performed at 0.5 ml/min flow and 58° C. Preparative HPLC was performed at 50 ml/min flow and room temperature.
Compound synthesis and purification. Peptoids were synthesized using an ABI 433A peptide synthesizer (Applied Biosystems, Inc.) on Rink amide MBHA resin (Novabiochem, Inc.) using the submonomer approach^3. Briefly, bromoacetic acid, activated by diisopropylcarbodiimide was used to form a bromocetylated intermediate on the terminal amide group. Bromide was then substituted with the desired primary amine through SN2 displacement to build the peptoid chain. The amines used in peptoid synthesis include benzylamine, octadecylamine, (s)-(+)-2-amino-3-methylbutane, (s)-α-methylbenzylamine, (r)-(α-methylbenzylamine (all purchased from Sigma-Aldrich), and N-tert-butoxycarbonyl-1,4 diaminobutane (Mys) that was made using a published procedure^83. Resin-bound peptoids were then exposed to a mixture of trifluoroacetic acid (TFA): triisopropylsilane:water (95:2.5:2.5, v:v:v) for ten minutes to cleave peptoids from the solid phase. Peptoids were purified by reversed-phase HPLC (RP-HPLC) (Waters Corporation) using a C18 column and a linear acetonitrile/water gradient. A final purity greater than 97% as measured by analytical RP-HPLC (Waters Corporation) was achieved, and the identity of each molecule was checked using electrospray ionization mass spectrometry. […]

[2] = tested on: Enterococcus faecalis ATCC 29212; assay type: cell-based; conditions: for Selectivity ratio (SR): Table 7B, 10% hemolytic dose divided by MIC
Description: (§1) Antibacterial assays. MICs were determined according to CLSI M7-A6 protocols in a 96-well microtiter plate. In test wells, 50 uL bacterial inoculum (5×10^5 CFU/ml) in Mueller-Hinton broth (MHB) was added to 50 μL peptoid solution in MHB (prepared by 1:2 serial dilutions). Positive controls contained 50 μL inoculum and 50 μL MHB without peptoid. […] MIC values reported were reproducible between three independent experimental replicates, each consisting of two parallel trials. Broad-spectrum antimicrobial susceptibility testing was performed against BSL2 pathogens by Nova Biologicals, Inc. (Conroe, Tex.).
(§2) Broad-spectrum antibacterial assays. MICs of compounds were determined by microdilution procedure in Mueller-Hinton broth (MHB) in accordance with CLSI M7-A6 protocols in a manner similar to that described for the screen antibacterial assays. Inoculated microtiter plates were incubated at 35° C. for 24 hours prior to the result being recorded. Four ATCC strains that were used as standards are recommended by CLSI: Pseudomonas aeruginosa ATCC 27853, Escherichia coli ATCC 25922, Staphylococcus aureus ATCC 29213 and Enterococcus faecalis ATCC 29212. Other strains from the ATCC collection include Proteus vulgaris ATCC 49132, Proteus mirabilis ATCC 35659, Klebsiella pneumoniae ATCC 33495, Enterobacter aerogenes ATCC 35029 and Serratia marcescens ATCC 13880. S. aureus NRS100 (COL) is a well characterized methicillian-resistant S. aureus (MRSA) strain. The strains S. aureus VAN1 and S. aureus VAN2, vancomycin-resistant MRSA strains that were isolated in Michigan and Pennsylvania, were the first vancomycin-resistant strains clinically isolated. S. aureus NRS 119 and S. aureus NRS 120 are linezolid-resistant isolates from the Network on Antimicrobial Resistance in S. aureus (NARSA) collection. E. faecalis 99 and E. faecium 106 are vancomycin-resistant enterococcal strains.

[3] = tested on: Escherichia coli ATCC 25922; assay type: cell-based; conditions: for Selectivity ratio (SR): Table 7B, 10% hemolytic dose divided by MIC
Description: as §1, §2

[4] = tested on: Klebsiella pneumoniae ATCC 33495; assay type: cell-based; conditions: for Selectivity ratio (SR): Table 7B, 10% hemolytic dose divided by MIC
Description: as §1, §2

[5] = tested on: Staphylococcus aureus NRS100 (COL); assay type: cell-based; conditions: for Selectivity ratio (SR): Table 7B, 10% hemolytic dose divided by MIC, S. aureus NRS100 (COL)
Description: as §1, §2

[6] = tested on: Staphylococcus aureus NRS119; assay type: cell-based; conditions: for Selectivity ratio (SR): Table 7B, 10% hemolytic dose divided by MIC, S. aureus NRS119
Description: as §1, §2

[7] = tested on: Staphylococcus aureus VAN2; assay type: cell-based; conditions: for Selectivity ratio (SR): Table 7B, 10% hemolytic dose divided by MIC, S. aureus VAN2
Description: as §1, §2

Row | Compound | HPLC elution solvent [1] [%] | % ACN at RP-HPLC elution ([1]; C18 column) [% ACN] | Selectivity ratio (SR) ([2]; E. faecalis ATCC 29212) | Selectivity ratio (SR) ([3]; E. coli ATCC 25922) | Selectivity ratio (SR) ([4]; K. pneumoniae ATCC 33495) | Selectivity ratio (SR) [5] | Selectivity ratio (SR) [6] | Selectivity ratio (SR) [7] | other results
1 | C[C@@H](c1ccccc1)N(CC(=O)N(CCc1cnc[nH]1)CC(=O)N(CCCCN)CC(=O)N(CC(=O)N(CC(=O)N(CCCCN)CC(=O)N(CC(=O)N(CCc1cnc[nH]1)CC(N)=O)[C@@H](C)c1ccccc1)[C@@H](C)c1ccccc1)[C@@H](C)c1ccccc1)C(=O)CN(CCCCN)C(=O)CN(C(=O)CN(C(=O)CNCCCCN)[C@@H](C)c1ccccc1)[C@@H](C)c1ccccc1 [1-Nhis6,12, H-(Nlys-Nspe-Nspe-Nlys-Nspe-Nhis)2-NH2] (H-[Nlys][Nspe][Nspe][Nlys][Nspe][Gly(N-CH2CH2-imidazol-4-yl)][Nlys][Nspe][Nspe][Nlys][Nspe][Gly(N-CH2CH2-imidazol-4-yl)]-NH2) | 37 | 51.4 | – | – | – | – | – | – | –
2 | CC(C)[C@H](C)N(CC(=O)N(CC(=O)N(CCCCN)CC(=O)N(CC(=O)N(CC(=O)N(CCCCN)CC(=O)N(CC(=O)N(CC(=O)N(CCCCN)CC(=O)N(CC(=O)N(CC(N)=O)[C@@H](C)c1ccccc1)[C@@H](C)C(C)C)[C@@H](C)c1ccccc1)[C@@H](C)C(C)C)[C@@H](C)c1ccccc1)[C@@H](C)C(C)C)[C@@H](C)c1ccccc1)C(=O)CNCCCCN [1-Nsdp2,5,8,11, H-(Nlys-Nsdp-Nspe)4-NH2] (H-[Nlys][X1][Nspe][Nlys][X1][Nspe][Nlys][X1][Nspe][Nlys][X1][Nspe]-NH2) | – | – | 23 | 23 | 23 | 23 | 12 | 23 | MIC ([2]; ATCC 29212): 8 µg/mL (≈ 4.75 µM); MIC ([3]; ATCC 25922): 8 µg/mL (≈ 4.75 µM); MIC ([4]; ATCC 33495): 8 µg/mL (≈ 4.75 µM); MIC ([5]; NRS100 (COL)): 8 µg/mL (≈ 4.75 µM); MIC ([6]; NRS119): 16 µg/mL (≈ 9.51 µM); MIC ([7]; VAN2): 8 µg/mL (≈ 4.75 µM)
3 | NCCCCNCC(=O)N(CC(=O)N(CC(=O)N(CCCCN)CC(=O)N(CC(=O)N(CC(=O)N(CCCCN)CC(=O)N(CC(=O)N(CC(=O)N(CCCCN)CC(=O)N(CC(=O)N(CC(N)=O)Cc1ccccc1)Cc1ccccc1)Cc1ccccc1)Cc1ccccc1)Cc1ccccc1)Cc1ccccc1)Cc1ccccc1)Cc1ccccc1 [1achiral, H-(Nlys-Npm-Npm)4-NH2] (H-[Nlys][Nphe][Nphe][Nlys][Nphe][Nphe][Nlys][Nphe][Nphe][Nlys][Nphe][Nphe]-NH2) | – | 60.4 | 19 | 19 | 39 | 39 | 19 | 39 | –
4 | GIGKFLKKAKKFGKAFVKILKK-NH2 [pexiganan, reference compound] | 38 | 50.2 | 5.7 | 23 | 23 | 11 | 2.8 | 23 | MIC ([2]; Table 7A, E. faecalis ATCC 29212): 32 µg/mL; MIC ([3]; Table 7A, E. coli ATCC 25922): 8 µg/mL; MIC ([4]; Table 7A, K. pneumoniae ATCC 33495): 8 µg/mL; MIC ([5]; Table 7A, S. aureus NRS100 (COL) (MRSA)): 16 µg/mL; MIC ([6]; Table 7A, S. aureus NRS119 (linezolid-resistant)): 64 µg/mL; MIC ([7]; Table 7A, S. aureus VAN2 (MRSA, vancomycin-resistant)): 8 µg/mL; HPLC ELUTION ([1]; Table 2, percent acetonitrile in H2O, C18 column, 0.1% TFA, pH 1): 38%; HPLC elution (% ACN) ([1]; Table 5, average of three injections, linear 5%-95% acetonitrile/water (0.1% TFA) over 45 minutes, C18 column): 50.2 % ACN
